We go through one cell line from the supplement of paper PMC10307832.

Compound in test [1]: CC(C)=CC[C@@H](O)C1=CC(=O)c2c(O)ccc(O)c2C1=O [Shikonin] + CC1(C)CCC(c2ccc(Cl)cc2)=C(CN2CCN(c3ccc(C(=O)NS(=O)(=O)c4ccc(N[C@H](CCN5CCOCC5)CSc5ccccc5)c(S(=O)(=O)C(F)(F)F)c4)cc3)CC2)C1 [Navitoclax] (partner 0.5 µM)
The test is described as follows: relative viability (nuclei count vs DMSO), 5 days (fraction); higher = more cells survive. An outline of the steps:
(§1)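 Relative viability is defined as nuclei in treated wells over nuclei in vehicle wells. Duplicate plates were run and medians reported. Lung cancer cell lines in 1536-well plates were dosed by pin tool one day after seeding, with one drug or with a fixed anchor-drug dose plus five library-drug doses (not always all listed) in √10 steps, and nuclei were counted after 5 days.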

Compound in test [2]: CC(C)N(CCCNC(=O)Nc1ccc(C(C)(C)C)cc1)C[C@H]1O[C@@H](n2ccc3c(N)ncnc32)[C@H](O)[C@@H]1O + COc1cc2c(Oc3ccc(NC(=O)C4(C(=O)Nc5ccc(F)cc5)CC4)cc3F)ccnc2cc1OCCCN1CCOCC1 [Foretinib] (partner 0.25 µM)
The description is as above. The procedure, abridged:
as §1

On to EBC-1, for which the relative viability in test [1] (first compound 0.01 µM) stood at 0.366; in test [1] (first compound 0.1 µM) it was 0.392; in test [1] (first compound 0.3162 µM), 0.352; in test [1] (first compound 1 µM), 0.254; in test [2] (first compound 0.08 µM) it was 0.108; in test [2] (first compound 0.253 µM), 0.098. The relative viability was 0.1 in test [2] (first compound 0.8 µM), 0.0973 in test [2] (first compound 2.53 µM) and 0.121 in test [2] (first compound 8 µM).
